According to ChEMBL document CHEMBL1201862, “PubChem BioAssay data set” (2004):
The source made the active and inactive calls.

Legend:
Mucolipin-3 = Mucolipin-3 (Homo sapiens, UniProt Q8TDD5); assay: Dose response cell-based high-throughput screening assay for agonists of the transient receptor potential channel ML3 (TRPML3). [Related pubchem assays: 1526, 1424, 1448 ]; type: functional
Ion channel NompC = Ion channel NompC (Danio rerio, UniProt Q7T1G6); assay: Fluorescence counterscreen assay for TRPML3 agonists: dose response cell-based high-throughput screening assay to identify agonists of the transient receptor potential channel N1 (TRPN1). [Related pubchem assays: 1526, 1424, 1448 ]; type: functional
[1] = target: Mothers against decapentaplegic homolog 3 (Homo sapiens, UniProt P84022); assay: inhibitors of SMAD-driven TGF-beta signaling – dose response (AID 715); type: functional
Cytochrome P450 2D6 = Cytochrome P450 2D6 (Homo sapiens, UniProt P10635);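 note: CYP2D6 member of a cytochrome P450 panel assay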
Cytochrome P450 2C19 = Cytochrome P450 2C19 (Homo sapiens, UniProt P33261); assay: Cytochrome panel assay with activity outcomes. Panel member name: p450-cyp2c19 Compounds with AC50 equal or less than 10 uM are considered active; type: functional
[2] = Trypanosoma cruzi growth suppression in host cells – NIH3T3 host cells, beta-gal luminescence, confirmation (AID 2044); type: functional, cell-based;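 note: intracellular parasites grown in NIH/3T3 mouse fibroblasts as host cells; luminescent beta-galactosidase reporter signal from transgenic T. cruzi replicating inside host cells; inhibitors lower the luminescence signal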
[3] = NIH3T3 cell viability loss – ATP luminescence, mouse fibroblasts, counter-screen, dose response (AID 2010); type: functional, cell-based;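 note: cells exposed to compound for about 90 hours before reading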
[4] = viability loss in Vero cells – cytotoxicity control for Vif-APOBEC3G degradation inhibitor project, dose response (AID 1117358); type: functional; conditions: Vero
NADPH oxidase 1 = NADPH oxidase 1 (Homo sapiens, UniProt Q9Y5S8); type: functional, cell-based;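 note: Cell-based assay with luminescence read-out, IC50 derived from inhibitor dose-response curves; intracellular ROS from endogenous NOX1 in intact HT29 colon cancer cells; potency of inhibitors that lower the ROS luminescence signal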
[5] = viability of HCT116 lacking mutant beta-catenin – cell-based, human colon tumor, dose response (AID 1045); type: functional;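 note: HCT116 colon tumor cells with beta catenin knocked out; cells exposed to compound for 60 hours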
Estrogen receptor = target: T1, Estrogen receptor (Homo sapiens, UniProt P03372); assay: ERα coactivator recruitment enhancers – biochemical, TR-FRET, ERα LBD, dose response (AID 737)
T1 sequence (P03372 whole entry): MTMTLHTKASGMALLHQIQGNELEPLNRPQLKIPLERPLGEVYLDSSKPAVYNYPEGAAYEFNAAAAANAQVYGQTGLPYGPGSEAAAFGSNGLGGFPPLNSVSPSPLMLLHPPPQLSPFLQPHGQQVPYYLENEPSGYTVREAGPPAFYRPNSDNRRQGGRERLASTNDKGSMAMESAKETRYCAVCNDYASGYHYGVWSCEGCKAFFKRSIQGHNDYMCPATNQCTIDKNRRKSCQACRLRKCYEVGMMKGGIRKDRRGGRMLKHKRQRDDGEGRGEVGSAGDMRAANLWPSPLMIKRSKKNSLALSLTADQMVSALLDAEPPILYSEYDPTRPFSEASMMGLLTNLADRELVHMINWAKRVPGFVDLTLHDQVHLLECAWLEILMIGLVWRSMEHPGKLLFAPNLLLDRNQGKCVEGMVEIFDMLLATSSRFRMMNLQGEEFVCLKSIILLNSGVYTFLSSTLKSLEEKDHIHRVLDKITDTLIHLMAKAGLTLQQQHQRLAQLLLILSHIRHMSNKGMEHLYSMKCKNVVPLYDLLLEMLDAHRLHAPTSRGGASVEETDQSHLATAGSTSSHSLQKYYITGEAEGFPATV

[6] = viability of PTEN-deleted HCT116 cells – cell-based, HCT116 PTEN knockout, dose response (AID 1047); type: functional;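 note: HCT116 colon tumor cells with PTEN knocked out; cells exposed to compound for 60 hours before readout; potency for loss of cell viability measured by luminescence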
Nonstructural protein 1 = Nonstructural protein 1 (Influenza A virus, UniProt Q194T2); type: functional, Influenza A virus (A/California/07/2009(H1N1))
Large T antigen = Large T antigen (Simian virus 40, UniProt P03070); type: functional, Betapolyomavirus macacae;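 note: Confirmatory-stage PubChem screen for compounds that inhibit SV40 T antigen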
[7] = target: Bifunctional protein GlmU (Mycobacterium tuberculosis, UniProt P9WMN3); assay: Inhibitors of Mycobacterial Glucosamine-1-phosphate acetyl transferase (GlmU). Secondary screen.; parameters: species or system Mycobacterium tuberculosis H37Rv
Protein S100-A4 = Protein S100-A4 (Homo sapiens, UniProt P26447); assay: human S100A4 peptide interaction inhibition curves – biochemical, fluorescence polarization, cherry-picked hits, dose response (AID 687001); type: functional
Cytochrome P450 3A4 = Cytochrome P450 3A4 (Homo sapiens, UniProt P08684);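 note: CYP3A4 tested as one member of a cytochrome P450 panel screen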
[8] = microbe, parasite or virus in culture; type: functional; conditions: Mycobacterium tuberculosis
[9] = A High Throughput Confirmatory Assay used to Identify Novel Compounds that Inhibit Mycobacterium Tuberculosis in the absence of Glycerol.; type: functional
Vero = assay: mammalian cell viability reduction – secondary assay, cytotoxicity control for West Nile virus antiviral project, dose response (AID 1650); type: functional; conditions: Chlorocebus sabaeus
[10] = target: Ubiquitin carboxyl-terminal hydrolase BAP1 (Homo sapiens, UniProt Q92560); assay: inhibition of BAP1 ubiquitin hydrolase activity – biochemical, dose response (AID 714); type: functional
Caspase-6 = Caspase-6 (Homo sapiens, UniProt P55212); assay: inhibition of CASP6 peptide cleavage – biochemical, VEID-R110 fluorescence, cherry-pick, dose response (AID 720632)
[11] = HIV-1 Vif–A3G interaction blockers – biochemical, TR-FRET, GST-Vif 1-94, biotin-A3G peptide, dose response retest, primary screen (AID 1117319); type: functional;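 note: TR-FRET signal of purified GST-Vif binding a biotinylated A3G peptide; inhibitors lower the FRET signal by blocking Vif and A3G binding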

Chain of Cytochrome P450 2D6 (P10635 whole entry): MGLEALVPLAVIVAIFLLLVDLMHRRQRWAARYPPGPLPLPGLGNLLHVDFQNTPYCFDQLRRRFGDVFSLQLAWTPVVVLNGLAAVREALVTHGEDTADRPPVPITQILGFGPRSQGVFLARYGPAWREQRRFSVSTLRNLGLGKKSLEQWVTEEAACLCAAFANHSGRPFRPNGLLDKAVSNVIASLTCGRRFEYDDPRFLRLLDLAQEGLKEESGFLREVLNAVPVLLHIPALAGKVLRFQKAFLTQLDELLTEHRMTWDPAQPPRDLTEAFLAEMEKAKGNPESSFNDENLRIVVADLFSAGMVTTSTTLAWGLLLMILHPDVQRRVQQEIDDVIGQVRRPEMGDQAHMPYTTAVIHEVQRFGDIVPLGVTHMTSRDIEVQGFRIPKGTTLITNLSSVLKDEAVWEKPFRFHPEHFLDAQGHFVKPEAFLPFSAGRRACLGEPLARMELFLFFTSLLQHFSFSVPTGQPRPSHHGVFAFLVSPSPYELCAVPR
Chain of Large T antigen (P03070 whole entry): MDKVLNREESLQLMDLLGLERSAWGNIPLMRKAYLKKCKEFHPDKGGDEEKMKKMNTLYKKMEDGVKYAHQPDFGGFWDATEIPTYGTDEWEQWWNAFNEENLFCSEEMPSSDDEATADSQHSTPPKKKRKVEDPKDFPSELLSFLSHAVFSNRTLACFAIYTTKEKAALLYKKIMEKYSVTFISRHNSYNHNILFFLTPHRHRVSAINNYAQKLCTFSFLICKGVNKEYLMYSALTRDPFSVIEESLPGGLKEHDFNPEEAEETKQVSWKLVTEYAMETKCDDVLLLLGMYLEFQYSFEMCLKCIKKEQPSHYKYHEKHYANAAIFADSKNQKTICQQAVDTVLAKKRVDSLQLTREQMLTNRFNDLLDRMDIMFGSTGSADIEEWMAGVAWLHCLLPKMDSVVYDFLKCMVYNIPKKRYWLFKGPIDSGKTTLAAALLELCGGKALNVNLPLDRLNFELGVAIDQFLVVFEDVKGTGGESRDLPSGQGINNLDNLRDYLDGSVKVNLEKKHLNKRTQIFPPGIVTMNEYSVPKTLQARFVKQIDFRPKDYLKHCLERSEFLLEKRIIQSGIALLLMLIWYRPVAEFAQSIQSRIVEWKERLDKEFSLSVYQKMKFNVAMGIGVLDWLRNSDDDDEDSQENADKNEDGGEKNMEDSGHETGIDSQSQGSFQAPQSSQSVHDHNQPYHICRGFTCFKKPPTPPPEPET
Chain of Ubiquitin carboxyl-terminal hydrolase BAP1 (Q92560 whole entry): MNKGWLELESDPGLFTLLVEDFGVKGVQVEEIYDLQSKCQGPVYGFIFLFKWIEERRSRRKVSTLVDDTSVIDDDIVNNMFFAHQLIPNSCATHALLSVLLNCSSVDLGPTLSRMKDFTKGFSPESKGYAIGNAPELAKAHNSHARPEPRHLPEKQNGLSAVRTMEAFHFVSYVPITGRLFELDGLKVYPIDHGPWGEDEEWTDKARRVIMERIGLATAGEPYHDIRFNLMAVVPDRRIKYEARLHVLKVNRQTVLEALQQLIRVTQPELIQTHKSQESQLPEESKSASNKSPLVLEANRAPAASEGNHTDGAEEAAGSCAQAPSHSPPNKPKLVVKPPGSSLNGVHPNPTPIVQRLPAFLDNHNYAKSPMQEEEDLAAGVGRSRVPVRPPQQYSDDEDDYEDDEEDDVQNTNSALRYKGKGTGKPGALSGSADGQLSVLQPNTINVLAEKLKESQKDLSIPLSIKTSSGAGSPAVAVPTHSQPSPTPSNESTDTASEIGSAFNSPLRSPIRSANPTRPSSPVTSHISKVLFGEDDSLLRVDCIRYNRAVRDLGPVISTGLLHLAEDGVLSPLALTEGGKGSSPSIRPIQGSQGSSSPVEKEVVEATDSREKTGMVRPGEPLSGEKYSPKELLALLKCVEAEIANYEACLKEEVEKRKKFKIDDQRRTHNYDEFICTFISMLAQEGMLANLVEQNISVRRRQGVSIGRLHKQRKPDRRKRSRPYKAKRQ
Chain of Cytochrome P450 2C19 (P33261 whole entry): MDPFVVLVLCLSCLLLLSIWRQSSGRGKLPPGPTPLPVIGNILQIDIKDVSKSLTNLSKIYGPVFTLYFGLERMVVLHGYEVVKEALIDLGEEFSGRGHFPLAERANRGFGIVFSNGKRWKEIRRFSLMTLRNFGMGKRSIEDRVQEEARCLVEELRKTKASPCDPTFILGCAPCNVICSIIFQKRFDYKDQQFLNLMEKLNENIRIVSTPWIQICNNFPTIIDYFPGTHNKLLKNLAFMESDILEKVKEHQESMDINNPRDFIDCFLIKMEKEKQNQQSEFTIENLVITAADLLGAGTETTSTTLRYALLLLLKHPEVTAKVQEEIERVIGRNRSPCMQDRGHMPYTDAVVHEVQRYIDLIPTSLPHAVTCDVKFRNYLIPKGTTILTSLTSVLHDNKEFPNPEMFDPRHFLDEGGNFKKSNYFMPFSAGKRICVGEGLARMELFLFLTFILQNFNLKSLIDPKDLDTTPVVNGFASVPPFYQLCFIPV
Chain of Ion channel NompC (Q7T1G6 whole entry): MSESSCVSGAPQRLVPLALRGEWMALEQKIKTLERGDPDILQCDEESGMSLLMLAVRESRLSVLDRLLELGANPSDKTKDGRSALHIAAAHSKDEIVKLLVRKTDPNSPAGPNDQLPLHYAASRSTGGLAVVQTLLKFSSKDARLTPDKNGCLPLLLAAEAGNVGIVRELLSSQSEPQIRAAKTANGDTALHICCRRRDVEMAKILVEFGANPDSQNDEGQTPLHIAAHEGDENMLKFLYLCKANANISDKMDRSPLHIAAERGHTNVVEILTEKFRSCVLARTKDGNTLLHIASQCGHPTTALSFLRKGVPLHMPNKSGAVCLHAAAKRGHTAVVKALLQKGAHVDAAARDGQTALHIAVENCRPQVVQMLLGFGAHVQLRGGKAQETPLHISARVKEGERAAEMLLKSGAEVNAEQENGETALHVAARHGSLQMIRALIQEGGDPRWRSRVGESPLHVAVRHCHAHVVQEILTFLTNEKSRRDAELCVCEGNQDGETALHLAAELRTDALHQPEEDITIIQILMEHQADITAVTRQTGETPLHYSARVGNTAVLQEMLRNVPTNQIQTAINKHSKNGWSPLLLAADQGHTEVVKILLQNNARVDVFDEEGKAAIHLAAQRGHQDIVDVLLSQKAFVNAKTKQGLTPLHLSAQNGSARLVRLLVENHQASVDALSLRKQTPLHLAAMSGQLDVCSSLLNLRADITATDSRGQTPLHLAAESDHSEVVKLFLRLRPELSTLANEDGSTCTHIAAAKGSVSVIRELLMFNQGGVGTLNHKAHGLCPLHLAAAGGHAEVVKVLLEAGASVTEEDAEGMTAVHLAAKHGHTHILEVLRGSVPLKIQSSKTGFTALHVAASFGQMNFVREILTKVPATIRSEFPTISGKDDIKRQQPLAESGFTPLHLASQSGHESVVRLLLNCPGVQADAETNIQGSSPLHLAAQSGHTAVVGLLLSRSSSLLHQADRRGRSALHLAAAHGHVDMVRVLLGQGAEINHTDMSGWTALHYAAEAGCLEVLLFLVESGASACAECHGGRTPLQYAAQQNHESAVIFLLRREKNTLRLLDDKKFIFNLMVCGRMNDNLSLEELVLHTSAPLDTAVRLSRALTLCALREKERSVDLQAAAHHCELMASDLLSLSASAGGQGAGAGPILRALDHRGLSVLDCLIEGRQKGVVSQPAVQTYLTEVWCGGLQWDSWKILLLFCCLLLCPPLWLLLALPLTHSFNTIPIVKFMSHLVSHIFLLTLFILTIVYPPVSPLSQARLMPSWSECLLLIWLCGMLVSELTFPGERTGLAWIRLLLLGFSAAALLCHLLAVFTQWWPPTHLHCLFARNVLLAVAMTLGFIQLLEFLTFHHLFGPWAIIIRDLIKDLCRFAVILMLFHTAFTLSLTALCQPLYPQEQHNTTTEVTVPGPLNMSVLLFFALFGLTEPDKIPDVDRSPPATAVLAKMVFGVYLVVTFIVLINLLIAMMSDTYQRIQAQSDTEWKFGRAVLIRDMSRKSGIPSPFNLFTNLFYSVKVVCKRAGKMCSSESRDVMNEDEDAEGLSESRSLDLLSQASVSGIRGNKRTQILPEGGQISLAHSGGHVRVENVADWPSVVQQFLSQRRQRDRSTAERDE
Chain of Protein S100-A4 (P26447 whole entry): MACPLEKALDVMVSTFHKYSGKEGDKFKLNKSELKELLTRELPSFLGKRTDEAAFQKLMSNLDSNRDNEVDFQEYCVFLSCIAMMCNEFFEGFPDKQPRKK
Chain of NADPH oxidase 1 (Q9Y5S8 whole entry): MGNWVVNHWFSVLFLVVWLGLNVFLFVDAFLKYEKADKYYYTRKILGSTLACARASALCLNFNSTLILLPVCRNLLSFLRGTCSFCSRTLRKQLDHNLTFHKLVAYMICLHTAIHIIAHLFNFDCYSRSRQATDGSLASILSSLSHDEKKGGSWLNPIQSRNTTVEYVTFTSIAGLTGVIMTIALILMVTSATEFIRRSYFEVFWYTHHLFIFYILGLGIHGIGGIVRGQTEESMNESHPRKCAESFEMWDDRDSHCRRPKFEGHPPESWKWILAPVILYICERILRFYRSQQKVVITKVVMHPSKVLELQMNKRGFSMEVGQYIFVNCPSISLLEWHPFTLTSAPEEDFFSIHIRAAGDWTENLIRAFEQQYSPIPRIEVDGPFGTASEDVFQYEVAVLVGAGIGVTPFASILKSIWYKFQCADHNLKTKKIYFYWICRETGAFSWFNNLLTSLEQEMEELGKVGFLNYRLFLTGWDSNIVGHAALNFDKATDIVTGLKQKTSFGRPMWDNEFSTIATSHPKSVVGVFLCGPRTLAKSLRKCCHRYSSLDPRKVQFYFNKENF
Chain of Caspase-6 (P55212 24-179 limits assumed): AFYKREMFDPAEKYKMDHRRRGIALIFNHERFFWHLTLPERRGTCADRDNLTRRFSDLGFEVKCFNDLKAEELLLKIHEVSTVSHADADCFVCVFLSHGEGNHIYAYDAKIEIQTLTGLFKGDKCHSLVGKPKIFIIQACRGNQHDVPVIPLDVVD
Chain of Caspase-6 (P55212 194-293 limits assumed): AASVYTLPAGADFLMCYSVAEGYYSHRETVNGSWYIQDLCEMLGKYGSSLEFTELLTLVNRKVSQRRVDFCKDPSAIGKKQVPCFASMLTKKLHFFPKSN

Compound: COc1ccc(Cl)cc1N(CC(=O)N1CCCCC1)S(C)(=O)=O
- EC50 (Mucolipin-3): 2.38 µM (active)
- EC50 (Ion channel NompC): > 29.9 µM (not active)

Compound: O=C(NCCCN1CCCCCC1)C1CC(=O)N(CCc2ccccc2)C1 (centres undefined)
- IC50 [1]: 10.2 µM (active)
- AC50 (Cytochrome P450 2D6): 25.1 µM (inconclusive)
- AC50 (Cytochrome P450 2C19): inconclusive

Compound: CCCCn1c(NCc2ccccc2NS(=O)(=O)c2ccc(C)cc2)nc2ccccc21
- EC50 [2]: 2.21 µM (active)
- EC50 [3]: > 60 µM (not active)
- CC50 [4]: > 40 µM (active)

Compound: O=C(Oc1cccc(F)c1)c1sc2ccccc2c1Cl
- IC50 (NADPH oxidase 1): > 17 µM (not active)

Compound: Cc1ccc(-c2nnc(-c3ccc(NC(=O)c4ccco4)cc3)o2)cc1
- EC50 [5]: 46.1 µM (active)
- EC50 (Estrogen receptor): 10.4 µM (active)
- EC50 [6]: 28.4 µM (active)

Compound: O=C1NC(=O)N(c2ccccc2F)C(=O)/C1=C/c1ccc(Sc2nc3ccccc3[nH]2)o1
- IC50 (Nonstructural protein 1): > 100 µM (active)
- IC50 (Large T antigen): 19.5 µM (active)
- IC50 [7]: 219 µM (active)
- AC50 (Protein S100-A4): 1.28 µM (active)

Compound: COc1ccccc1C1CC(c2c(O)nc3ccc(Cl)cc3c2-c2ccccc2)=NN1S(C)(=O)=O (centres undefined)
- AC50 (Cytochrome P450 3A4): 39.8 µM (inconclusive)
- CC50 [8]: 25.2 µM (active)
- IC50 [9]: > 100 µM (active)
- AC50 (Cytochrome P450 2D6): 7.08 µM (inconclusive)
- CC50 (Vero): 16 µM (active)

Compound: COc1cccc(NC(=O)c2ccccc2-c2nc(-c3ccc(Cl)cc3)no2)c1
- IC50 [10]: 9 µM (active)

Compound: O=C(O)c1cc(S(=O)(=O)Nc2ccc3c[nH]nc3c2)ccc1O
- AC50 (Caspase-6): 11.3 µM (active)

Compound: CCn1c(=O)cc(N2CCC3(CC2)OCCO3)[nH]c1=O
- IC50 [11]: > 100 µM (active)
